Measurements published in ChEMBL document CHEMBL4739717, “Methods of treating cartilage disorders through inhibition of clk and dyrk” (2020).

How the values were obtained:
[1] = Induction of chondrogenesis in human MSC assessed as maximum activity at 300 nM incubated for 6 days by rhodamine B and Nile red staining based imaging analysis relative to control; format: functional; conditions: BMMSC, 144 h, time 6 day
[2] = molecular target: Dual specificity tyrosine-phosphorylation-regulated kinase 1A (Homo sapiens, UniProt Q13627); assay: Inhibition of recombinant DYRK1A (unknown origin) using Ser/Thr 18 peptide as substrate incubated for 1 hr in presence of ATP by FRET assay
[3] = Effect on Wnt signaling pathway in human SW480 cells harbouring TCF/LEF luciferase reporter gene and SP5-Luc reporter gene incubated for 36 to 48 hrs by luminescence assay; format: cell-based
[4] = Induction of chondrogenesis in human MSC assessed as incubated for 6 days by rhodamine B and Nile red staining based imaging analysis; format: functional; conditions: bmmsc
[5] = Induction of chondrogenesis in human MSC assessed as maximum activity at 100 nM incubated for 6 days by rhodamine B and Nile red staining based imaging analysis relative to control; format: functional; conditions: BMMSC, 144 h, time 6 day
[6] = Inhibition of IL1-beta induced MMP3 expression levels in human chondrocytes assessed as MMP3 levels incubated for 2hrs followed by IL1-beta stimulation and measured after overnight incubation by LANCE assay; format: functional, cell-based; conditions: Chondrocyte

Structure (SMILES) | Emax at 0.3 µM [1] | EC50 [2] | EC50 [3] | EC50 [4] | Emax at 0.1 µM [5] | EC50 [6]
CC(C)C(=O)Nc1cncc(-c2cc3c(-c4cc5c(-c6ccncc6)nccc5[nH]4)n[nH]c3cn2)c1 | 32.1% | 45 nM | > 10000 nM | – | – | –
c1cncc(-c2cncc3[nH]c(-c4n[nH]c5ncc(-c6cncnc6)cc45)cc23)c1 | 24.1% | 7 nM | > 10000 nM | – | – | –
O=C(Nc1cncc(-c2cnc3[nH]nc(-c4nc5c(-c6cccnc6)cncc5[nH]4)c3c2)c1)C1CC1 | 86.3% | 14 nM | 23.3 nM | – | – | –
CCC(=O)Nc1cncc(-c2cnc3[nH]nc(-c4cc5cnccc5[nH]4)c3c2)c1 | 16.9% | 2 nM | 960 nM | – | – | –
CN1CCN(c2cncc3[nH]c(-c4n[nH]c5ccc(-c6cncc(NC(=O)CC(C)(C)C)c6)cc45)cc23)CC1 | 30.8% | 12 nM | 3480 nM | – | – | –
CC(C)C(=O)Nc1cncc(-c2ccc3[nH]nc(-c4cc5c(N6CCN(C)CC6)nccc5[nH]4)c3c2)c1 | 21% | 15 nM | 7690 nM | – | – | –
CC(C)Nc1cncc(-c2cnc3[nH]nc(-c4cc5c(N6CCCCC6)nccc5[nH]4)c3c2)c1 | 33.6% | 70 nM | 3410 nM | – | – | –
Nc1cncc(-c2cc3c(-c4cc5c(-c6ccccc6F)cncc5[nH]4)n[nH]c3cn2)c1 | 15.5% | 40 nM | 1630 nM | – | – | –
CC(C)(C)C(=O)Nc1cncc(-c2cnc3[nH]nc(-c4cc5c(-c6ccncc6)cncc5[nH]4)c3c2)c1 | 33.6% | 5 nM | > 10000 nM | – | – | –
O=C(Nc1cncc(-c2cnc3[nH]nc(-c4nc5c(-c6cccc(F)c6)cncc5[nH]4)c3c2)c1)N1CCOCC1 | 96.8% | 14 nM | 9 nM | – | – | –
CN(C)Cc1cncc(-c2cc3c(-c4cc5c(-c6ccncc6)ccnc5[nH]4)n[nH]c3cn2)c1 | 33.4% | 71 nM | > 10000 nM | – | – | –
O=C(Nc1cncc(-c2cnc3[nH]nc(-c4cc5c(-c6cccs6)nccc5[nH]4)c3c2)c1)C1CCC1 | – | 46 nM | 473 nM | 100 nM | 82.2% | –
CN(C)CCNc1cc(F)cc(-c2cccc3[nH]c(-c4n[nH]c5cnc(-c6cncc(N)c6)cc45)cc23)c1 | – | 23 nM | 407 nM | 100 nM | 180% | –
CN1CCN(c2cncc3[nH]c(-c4n[nH]c5ccc(-c6cncc(NC(=O)CC7CCNCC7)c6)cc45)cc23)CC1 | – | 15 nM | > 10000 nM | 100 nM | 289% | –
FC1(F)CCN(Cc2cncc(-c3ccc4[nH]nc(-c5cc6c(N7CCCCC7)cccc6[nH]5)c4c3)c2)C1 | – | 22 nM | 750 nM | 30 nM | 160% | –
CN1CCN(c2cccc3[nH]c(-c4n[nH]c5ncc(-c6cncc(CN7CCCCC7)c6)cc45)cc23)CC1 | – | 34 nM | 4750 nM | 300 nM | 23.6% | –
Cc1ncc(-c2ccc3[nH]nc(-c4nc5c(-c6cccc(F)c6)cccc5[nH]4)c3n2)n1C | – | 80 nM | 150 nM | 10 nM | 112% | –
O=C1COc2cccc(c2)-c2cncc3[nH]c(nc23)-c2n[nH]c3ccc(cc23)-c2cncc(c2)N1 | – | – | 86.8 nM | 100 nM | 185% | 37.4 nM
CN1CCN(c2ccnc3[nH]c(-c4n[nH]c5ccc(-c6cncc(N)c6)cc45)cc23)CC1 | – | 7 nM | 1170 nM | 100 nM | 50.2% | –
CN(C)Cc1cncc(-c2cnc3[nH]nc(-c4nc5c(-c6cc(F)cc(N7CCOCC7)c6)cncc5[nH]4)c3c2)c1 | – | 11 nM | 21 nM | 30 nM | 114% | –
CC(C)OCCCNC(=O)c1n[nH]c2ccc(-c3cccnc3)cc12 | – | – | 464 nM | – | 92.5% | 10.8 nM
Nc1cncc(-c2ccc3[nH]nc(-c4nc5c(-c6ccccc6F)nccc5[nH]4)c3c2)c1 | – | 6 nM | 8.8 nM | 100 nM | 61.9% | –
Cc1ccc(-c2cncc3[nH]c(-c4n[nH]c5cnc(-c6cncc(NC(=O)C7CCC7)c6)cc45)nc23)s1 | – | 12 nM | 10.1 nM | 100 nM | 231% | –
CCCC(=O)Nc1cncc(-c2cnc3[nH]nc(-c4nc5c(-c6ccoc6)cccc5[nH]4)c3c2)c1 | – | 25 nM | 63 nM | 100 nM | 111% | –
Nc1cncc(-c2ccc3[nH]nc(-c4nc5c(-c6ccccc6F)ccnc5[nH]4)c3n2)c1 | – | 15 nM | > 10000 nM | 10 nM | 127% | –

Structure (SMILES) | Emax at 0.3 µM [1] | EC50 [2] | EC50 [3] | EC50 [4] | Emax at 0.1 µM [5] | EC50 [6]
CCCCC(=O)Nc1cncc(-c2cnc3[nH]nc(-c4cc5c(-c6ccncc6)cncc5[nH]4)c3c2)c1 | – | 17 nM | > 10000 nM | 10 nM | 70.4% | –
CC(C)CC(=O)Nc1cncc(-c2cnc3[nH]nc(-c4cc5c(-c6ccncc6)cccc5[nH]4)c3c2)c1 | – | 23 nM | 711 nM | 30 nM | 71.4% | –
c1cncc(-c2ccc3[nH]nc(-c4cc5c(-c6cccnc6)cncc5[nH]4)c3c2)c1 | – | 1 nM | 310 nM | 100 nM | 58.2% | 1.1 nM
Nc1cncc(-c2ccc3[nH]nc(-c4cc5c(-c6ccncc6)nccc5[nH]4)c3c2)c1 | – | 11 nM | 658 nM | 100 nM | 76.8% | –
CC(C)CC(=O)Nc1cncc(-c2ccc3[nH]nc(-c4nc5c(-c6cc(F)cc(CNS(C)(=O)=O)c6)cncc5[nH]4)c3c2)c1 | – | 16 nM | 5 nM | 100 nM | 118% | –
Cc1ccncc1-c1cc2c(-c3cc4cnccc4[nH]3)n[nH]c2cn1 | – | 11 nM | 389 nM | 10 nM | 61.4% | –
CCNCc1cncc(-c2cnc3[nH]nc(-c4cc5c(-c6cc(F)cc(CNS(C)(=O)=O)c6)cncc5[nH]4)c3c2)c1 | – | 6 nM | > 10000 nM | – | 42.8% | 3000 nM
CC(C)Nc1cncc(-c2ccc3[nH]nc(-c4nc5c(-c6ccoc6)ccnc5[nH]4)c3n2)c1 | – | 26 nM | 298 nM | 100 nM | 64.2% | –
c1cncc(-c2ccc3[nH]nc(-c4nc5c(-c6ccoc6)cncc5[nH]4)c3c2)c1 | – | 3 nM | 45.4 nM | 100 nM | 149% | –
Cn1cc(-c2cc3c(-c4nc5c(-c6cccc(F)c6)nccc5[nH]4)n[nH]c3cn2)cn1 | – | 26 nM | 10 nM | 100 nM | 110% | –
CC(C)C(=O)Nc1cncc(-c2cc3c(-c4cc5cnccc5[nH]4)n[nH]c3cn2)c1 | – | 1 nM | 399 nM | 30 nM | 61.2% | –
CCC(=O)Nc1cncc(-c2ccc3[nH]nc(-c4cc5c(-c6cccc(F)c6)ccnc5[nH]4)c3c2)c1 | – | 33 nM | 13.2 nM | 100 nM | 167% | –
CC(C)(C)C(=O)Nc1cncc(-c2ccc3[nH]nc(-c4nc5c(N6CCCCC6)cncc5[nH]4)c3c2)c1 | – | 8 nM | 41 nM | 100 nM | 114% | –
Cc1cn(-c2ccnc3[nH]c(-c4n[nH]c5ccc(-c6cncc(NC(=O)C7CCC7)c6)nc45)nc23)cn1 | – | 20 nM | > 10000 nM | 300 nM | 69.1% | –
CCNCc1cncc(-c2ccc3[nH]nc(-c4cc5c(-c6cc(F)cc(CNS(C)(=O)=O)c6)cncc5[nH]4)c3c2)c1 | – | 21 nM | > 10000 nM | 100 nM | 58% | –
CC(C)Nc1cncc(-c2ccc3[nH]nc(-c4nc5c(-c6cccnc6)ccnc5[nH]4)c3n2)c1 | – | 14 nM | 1750 nM | 10 nM | 114% | –
Fc1ccccc1-c1cncc2[nH]c(-c3n[nH]c4ncc(-c5cn[nH]c5)cc34)cc12 | – | 20 nM | 375 nM | 100 nM | 51.1% | –
O=C(Nc1cncc(-c2cc3c(-c4cc5c(-c6cccnc6)cccc5[nH]4)n[nH]c3cn2)c1)C1CC1 | – | 34 nM | 330 nM | 100 nM | 308% | –
Cc1ncc(-c2cnc3[nH]nc(-c4nc5c(-c6cccc(F)c6)nccc5[nH]4)c3c2)n1C | – | 5 nM | 12.5 nM | 100 nM | 152% | –
c1cc2[nH]c(-c3n[nH]c4ccc(-c5cncc(CN6CCCCC6)c5)cc34)cc2cn1 | – | 4 nM | 685 nM | 100 nM | 122% | –
CCCCC(=O)Nc1cncc(-c2ccc3[nH]nc(-c4cc5c(N6CCCCC6)cccc5[nH]4)c3n2)c1 | – | 40 nM | 572 nM | 100 nM | 68.6% | –
O=C1CCc2cccc(c2)-c2cncc3[nH]c(nc23)-c2n[nH]c3ccc(cc23)-c2cncc(c2)N1 | – | – | 51.8 nM | 50 nM | 225% | 3000 nM
Nc1cncc(-c2cc3c(-c4cc5c(N6CCCCC6)cncc5[nH]4)n[nH]c3cn2)c1 | – | 6 nM | 2960 nM | 30 nM | 93.5% | –
CCC(=O)Nc1cncc(-c2cnc3[nH]nc(-c4nc5c(-c6ccsc6)cccc5[nH]4)c3c2)c1 | – | 76 nM | 10 nM | 100 nM | 167% | –
